According to the METLIN SMRT retention time set (Domingo-Almenara et al. 2019):

Test: gradient 5% acetonitrile 3 min, to 50% in 2 min, to 85% in 15 min, held 3 min, 100 µL/min
Conditions: column: Zorbax Extend-C18 2.1 x 50 mm; eluents: water / acetonitrile, 0.1% formic acid
Method in brief: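 Retention time was recorded from adduct peaks, which were picked computationally and each inspected manually. Pure standards ran in mixtures of ~100 molecules on HPLC coupled to a quadrupole time-of-flight mass spectrometer, in positive and negative ionization mode, through a Zorbax Extend-C18 column (2.1 × 50 mm, 1.8 μm) at 100 μL/min. Eluents were water and acetonitrile, each with 0.1% formic acid.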

SMILES	RP-LC retention time [s]
Cc1sc2ccn(Cc3ccc(F)cc3)c(=O)c2c1C(=O)NCC1CCCO1 (stereo not drawn)	775
O=C(c1cncnc1)N1CCC(F)(F)C(COCC2CC2)C1 (stereo not drawn)	683
CCCc1ccc(S(=O)(=O)N2CCC(n3cnc4ccc(C)cc4c3=O)CC2)cc1	1100
Cc1nc2sc(C)c(C)n2c(=O)c1NC(=O)COc1ccc(Cl)cc1Cl	827
CCc1cc(=O)n(CC(=O)Nc2cc(F)ccc2F)c(-c2ccccc2)n1	1180
Cc1ccc(Nc2c(-c3cccc(Br)c3)nc3c(C)cccn23)cc1	843
Cc1ccccc1NC(=O)N1CCC(N(CCC(C)C)C2CCOCC2)CC1	636
COc1ccc(-c2nnc(COc3ccc(NC(=O)c4ccnn4C)cc3)o2)cc1	790
CC(C)c1cc(C(=O)Nc2ccc(F)c(Cl)c2)nc2ccnn12	1210
CCCN1C(=O)c2cc(C(=O)NCc3ccc(F)cc3)nn2CC1(C)C(=O)NC1CCCC1 (stereo not drawn)	824
O=c1[nH]c2ccc(NCc3ccc(Cl)c(Cl)c3)cc2[nH]1	707
Cc1ccn2cc(-c3ccc(NC(=O)c4cccc([N+](=O)[O-])c4)cc3)nc2n1	652
COc1ccc(OC)c(NC(=O)Cc2csc3nc(-c4cccc(Br)c4)cn23)c1	1010
Cc1nn(C(C)C(=O)NCCN(C)Cc2ccccc2)c(=O)c2c(C)n(-c3ccccc3)nc12 (stereo not drawn)	686
COc1ccc2c(CCNC(=O)c3ccc(C(C)(C)C)cc3)c[nH]c2c1	982
CCOc1ccc(N2CC(CNS(=O)(=O)c3ccccc3C(F)(F)F)CC2=O)cc1 (stereo not drawn)	824
CCCCN1C(=O)C(C)(C(=O)Nc2cccc(F)c2)Oc2cccnc21 (stereo not drawn)	924
O=C(CCc1c(-c2ccc(Cl)cc2)nc2ccccn12)NCc1cccnc1	570
CNc1nc(NCc2ccc(NC(=O)c3ccc(F)cc3)cc2)c2ccccc2n1	692
COc1cccc(CN2CN(c3ccc(C)cc3)c3ncccc3S2(=O)=O)c1	1110
CN(C)C(=O)c1ccc2c(c1)N(CC(=O)Nc1cccnc1)C(=O)CO2	572
COc1ccc(NC(=O)NC2CCN(c3ccc(C)c(C)c3)C2=O)cc1F (stereo not drawn)	800

SMILES	RP-LC retention time [s]
O=C(Cn1nc2c3ccccc3ncn2c1=O)Nc1ccc2c(c1)OCO2	665
Cc1ccc(-c2ccc(-n3nc(C)c(S(=O)(=O)NCCC(C)C)c3C)nn2)cc1	1210
Cc1ccccc1S(=O)(=O)N1CCC2(CC1)CC(OCc1ccccc1)CCO2 (stereo not drawn)	1210
O=C(Cn1nc2c3ccc(Cl)cc3ncn2c1=O)Nc1ccccc1	727
COc1cc(NC(=O)CN2CCSc3ccccc32)cc(OC)c1OC	890
COc1cccc2cc(C(=O)Nc3cc(C)nn3-c3ccccc3)oc12	832
CCN(CC)c1nc2cc(C(=O)OC)ccc2c(=O)n1-c1cc(OC)cc(OC)c1	1090
COCCn1c(CCCC(=O)Nc2ccc(Cl)cc2)nc2cccnc21	693
O=S(=O)(Nc1ccc(Cn2cncn2)cc1)c1ccc2c(c1)CCCC2	786
CC(C)CCNS(=O)(=O)c1cc(-c2nc(C(C)(C)C)cs2)cs1	1310
CCNC(=O)C1CCCN(c2nc3ncn(CC(=O)Nc4c(C)cc(C)cc4C)c(=O)c3s2)C1 (stereo not drawn)	715
Cc1nc2ccc(NC(=O)c3ccc(Cn4ccnc4)cc3)cc2s1	565
Cc1ccn2cc(CCNC(=O)c3ccc(C(F)(F)F)cc3)nc2c1	580
c1cncc(-c2nc(-c3ccnc(N4CCOCC4)c3)no2)c1	953
COc1ccc(C2(C(=O)N3CCC4(CC3)c3nccn3-c3ccccc3CN4C)CC2)cc1	630
CCn1nccc1C(=O)NCC1Cn2cccc2C(=O)N1CC(C)C (stereo not drawn)	698
CCCNC(=O)CCc1nc2ccccc2n(CC(=O)Nc2cc(Cl)c(OC)cc2OC)c1=O	790
COc1ccc(NS(=O)(=O)c2cn(CC(C)C)c3ncccc23)cc1	896
COc1ccc(OCc2nc(-c3ccc4c(c3)oc(=O)n4C(C)C)no2)cc1	1110
CCCC(=O)Nc1ccc(CCc2nc3ccc(C(=O)NCCOC)cc3[nH]2)cc1	599
Fc1ccc(-c2noc(Cc3nnc(-c4cccc(Cl)c4)o3)n2)cc1	1070
COCCCNC(=O)CCC[C@@H]1[C@H]2CCCN3CCC[C@@H](CN1C)[C@@H]23	709

Further lines, results first:

RP-LC retention time [s]	SMILES
678	O=C(Nc1c(C(=O)N2CCN(c3ccccn3)CC2)[nH]c2ccccc12)c1ccc(Cl)cc1
588	CC(C)(C)C(=O)Nc1cnc(N2CCNCC2)c(C(=O)N2CCCC2)c1
1140	Cc1ccccc1OCC1c2ccsc2CCN1C(=O)CN(CC1CCCO1)C(=O)NC(C)(C)C (stereo not drawn)
893	CCOc1ccc(N2C=C(C(=O)N3CCOCC3)S(=O)(=O)c3ccc(Cl)cc32)cc1
776	CC(CNC(=O)C1CCN(C(=O)C2Sc3ccccc3NC2=O)CC1)c1ccccc1 (stereo not drawn)
738	Cc1nnc2c(=O)n(CC(=O)NCCN3CCc4ccccc4C3)c3cccnc3n12
569	COCCNc1c(-c2ccc(F)cc2)nc2sc(C(=O)N3CCN(C)CC3)c(C)n12
601	Cc1ccc(CN2CCC(CNC(=O)Cn3ccc4c(=O)n(C)c(=O)n(C)c43)CC2)cc1
775	COc1cc2c(cc1OC)CN(C(=O)C1CCCN1S(=O)(=O)c1ccc(F)cc1)CC2 (stereo not drawn)
911	COc1ccccc1CNC(=O)c1nnc(-c2ccc(S(=O)(=O)N3CCCCC3)cc2)o1
644	O=C(Cc1cccc(Cl)c1)N1CCN(c2nc(CN3CCOCC3)cs2)CC1
608	Cc1ccc2c(Nc3ccc(Cl)cc3)c(C(=O)N3CCOCC3)cnc2n1
979	Cc1ccc(NC(=O)N2CCc3nc(-c4ccc(F)cc4)ncc3C2)c(C)c1
622	CCCN1CCN(CCCNC(=O)C(C)n2c(=O)c(C(F)(F)F)nc3ccccc32)CC1 (stereo not drawn)
670	CC#CCn1c(N2CCC[C@@H](N)C2)nc2c1c(=O)n(Cc1nc(C)c3ccccc3n1)c(=O)n2C
754	CCN1CCCn2cc(S(=O)(=O)NCc3cccc(F)c3)cc2C1=O
686	O=C(NCc1ccc(F)c(Cl)c1)C1CCN(c2nnc3ccccn23)CC1
574	CCN(CCCNC(=O)C1CCN(c2nccc3c(C)nn(C)c23)CC1)c1ccccc1
627	COc1cccc(N2CCN(C(=O)C3CCCN(c4ncnc5c4nc4n5CCCCC4)C3)CC2)c1 (stereo not drawn)
682	Cc1cc(C)c2c(N3CCSCC3)nc(C(=O)N(C)Cc3ccccc3)nc2n1
915	O=C(NCc1ccc(-c2noc(/C=C/c3ccccc3)n2)s1)C1CC1
591	O=C(Nc1nc2ccccc2[nH]1)C1CCN(c2ccc(-c3cccs3)nn2)CC1

RP-LC retention time [s]	SMILES
620	O=C(c1ccccn1)N1CCC(n2c(C3CCCC3)nc3cccnc32)C1 (stereo not drawn)
572	Cc1nc(-c2nnc(NC(=O)C3CCN(S(C)(=O)=O)CC3)o2)cs1
588	CN(CC(=O)N1CCN(C2CCCC2)CC1)S(=O)(=O)c1ccc2c(c1)CCCC(=O)N2
751	Cc1cc(NC(=O)C2CCCN(c3ncnc4c3nc3n4CCCCC3)C2)no1 (stereo not drawn)
983	COc1ccc(-c2cc3n(n2)CCCN(S(=O)(=O)CCc2ccccc2)C3)cc1
603	Cn1cnnc1SCC(=O)Nc1ccc(F)cc1
1040	CCc1nc(-c2csc(S(=O)(=O)N3CCC(C(=O)Nc4ccc(F)cc4Cl)CC3)c2)no1
919	O=C(Nc1ccc2c(c1)OCCO2)N1CCCn2nc(-c3cccc(Cl)c3)cc2C1
708	Cc1cccc(-c2noc(-c3ccc(N4CCN(C)CC4)nc3)n2)c1
956	Cc1cc(C(=O)N2CCC(Oc3nc4c(Cl)cccc4s3)CC2)no1
776	CCn1c(N2CCCC(C(=O)NCc3ccc(F)cc3)C2)cc(=O)n(C)c1=O (stereo not drawn)
557	Cc1cccc(NC(=O)N2CCc3[nH]cnc3C2c2ccncc2)c1 (stereo not drawn)
781	O=C(c1ccc(Br)o1)N1CC2CN(S(=O)(=O)c3ccccc3)CC(C1)O2
758	Cc1ccc(Cc2noc(CN3CCCC3=O)n2)cc1
541	Cc1cccc2nnc(N3CCCN(C(=O)c4cccs4)CC3)n12
804	CC1CCCN(c2ccn3c(=O)n(CC(=O)NCc4ccc(F)cc4)nc3n2)C1 (stereo not drawn)
644	CN1C(=O)c2cc(C(=O)N3CCOCC3)nn2CC1(C)C(=O)NCc1ccc(F)cc1 (stereo not drawn)
784	O=c1c(NCC2CCCCC2)nc2ccncc2n1Cc1ccccc1
960	COc1ccc(-c2noc(C3CCCN3C(=O)c3c(OC)cccc3OC)n2)cc1 (stereo not drawn)
1040	CN(Cc1ccccc1)C(=O)c1nnc(-c2ccc(S(=O)(=O)N3CCCCC3)cc2)o1
569	Cc1cccc(C(=O)N2CCc3nc[nH]c3C2)c1
549	CCN(CC)c1ncnc2c1cnn2CC(=O)N1CCN(c2ccccn2)CC1
